In PubChem BioAssay (NCI):
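Growth conditions: 96-well plates. Treatment: test compound, 48 hours, 5 concentrations. Analysis: linear interpolation between bracketing concentrations; unreached endpoints set to highest concentration. TGI denotes the concentration required for complete inhibition of growth.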

Tests used:
Assay in all cases: DTP human tumour cell line panel, 48 h
NCI-H23 lung = tested on: NCI-H23 lung
NCI-H460 lung = tested on: NCI-H460 lung
MDA-N = tested on: MDA-N
SF-539 CNS = tested on: SF-539 CNS
A498 renal = tested on: A498 renal
HOP-62 NSCLC = tested on: HOP-62 NSCLC
RPMI-8226 leukemia = tested on: RPMI-8226 leukemia
HCT-15 colon = tested on: HCT-15 colon
SK-MEL-5 melanoma = tested on: SK-MEL-5 melanoma
SF-268 CNS = tested on: SF-268 CNS

Row | Compound | TGI (NCI-H23 lung) | TGI (NCI-H460 lung) | TGI (MDA-N) | TGI (SF-539 CNS) | TGI (A498 renal) | TGI (HOP-62 NSCLC) | TGI (RPMI-8226 leukemia) | TGI (HCT-15 colon) | TGI (SK-MEL-5 melanoma) | TGI (SF-268 CNS)
1 | CN(NC(=O)/C(=C/C=C/c1ccccc1)NC(=O)c1ccccc1)C1=C(Cl)C(=O)[N+](c2ccccc2)=CC1 | > 100 µM | > 100 µM | 37.5 µM | 38 µM | > 100 µM | 51.5 µM | 63.2 µM | 62.8 µM | 27.4 µM | 70.4 µM
2 | O=C(n1c(=O)n(-c2ccc([N+](=O)[O-])cc2)c(=O)n1C(=O)C(Cl)(Cl)Cl)C(Cl)(Cl)Cl | > 100 µM | > 100 µM | > 100 µM | > 100 µM | > 100 µM | > 100 µM | > 100 µM | > 100 µM | > 100 µM | > 100 µM
3 | C[N+](C)(C)c1nc(N)nc2c1ncn2C1OC(CO)C(O)C1O (stereo not given) | > 100 µM | > 100 µM | > 100 µM | > 100 µM | > 100 µM | > 100 µM | > 100 µM | > 100 µM | > 100 µM | > 100 µM
4 | Cc1ccc2c(=O)c3c(O)c4c(cc3n(C)c2c1)OC(C)(C)C=C4 | > 10 µM | > 10 µM | > 10 µM | > 10 µM | > 10 µM | > 10 µM | > 10 µM | > 10 µM | > 10 µM | > 10 µM
5 | CC(C)(CN1CCCCC1)C(=O)CC(SCCS(=O)(=O)O)c1ccc(Cl)c(Cl)c1 (stereo not given) | 15.8 µM | 11.9 µM | 8.4 µM | 6.23 µM | 12.9 µM | 18.7 µM | 7.03 µM | 5.35 µM | 21.1 µM | 15.1 µM
6 | C[C@@H](CC(O)C(O)C(C)(C)O)C1CCC23CC12CCC1[C@@]2(C)CCC(=O)C(C)(C)C2CC(OC2OC(CO)C(O)C(O)C2O)[C@]13C (stereo not given in full) | > 10 µM | > 10 µM | > 10 µM | > 10 µM | > 10 µM | > 10 µM | > 10 µM | > 10 µM | > 10 µM | > 10 µM
7 | O=C(NC(Cc1c[nH]c2ccccc12)C(=O)O)/C(=C/c1ccccc1)NC(=O)c1ccccc1 (stereo not given) | > 100 µM | > 100 µM | > 100 µM | > 100 µM | > 100 µM | > 100 µM | > 100 µM | > 100 µM | > 100 µM | > 100 µM
8 | C=C1C(=O)O[C@H]2[C@@H](O)[C@H](C)CCC/C(C)=C/CC[C@@]3(C)O[C@@H]3C[C@@H]12 | 21.8 µM | 16.8 µM | 25.6 µM | 11.8 µM | 25.3 µM | 56.3 µM | 25.7 µM | 4.68 µM | 28.1 µM | 22 µM
9 | NC(=O)Nc1n[nH]c(-c2ccccc2)n1 | > 100 µM | > 100 µM | > 100 µM | > 100 µM | > 100 µM | > 100 µM | > 100 µM | > 100 µM | > 100 µM | > 100 µM
10 | O=c1[nH]nc(Cc2ccc([N+](=O)[O-])cc2)[nH]1 | > 100 µM | > 100 µM | > 100 µM | > 100 µM | > 100 µM | > 100 µM | > 100 µM | > 100 µM | > 100 µM | > 100 µM
11 | O=C1C(=O)C(CCCO)(CCCO)CCCCCCCCC1(CCCO)CCCO | > 100 µM | > 100 µM | > 100 µM | > 100 µM | > 100 µM | > 100 µM | 32 µM | > 100 µM | > 100 µM | > 100 µM
12 | NC(Cc1ccccc1)C(=O)O (stereo not given) | > 100 µM | > 100 µM | > 100 µM | > 100 µM | > 100 µM | > 100 µM | > 100 µM | > 100 µM | > 100 µM | > 100 µM
13 | CCSc1nn(-c2c3ccccc3nc3ccccc23)c(=S)s1 | > 100 µM | > 100 µM | > 100 µM | > 100 µM | > 100 µM | > 100 µM | > 100 µM | > 100 µM | > 100 µM | > 100 µM
14 | Cc1nc2ccccc2n1CCc1nc2ccccc2[nH]1 | > 100 µM | > 100 µM | > 100 µM | > 100 µM | > 100 µM | > 100 µM | > 100 µM | > 100 µM | > 100 µM | > 100 µM
15 | NCCCN1CCN(CCCNc2ccc3ncn4c5ccccc5c(=O)c2c34)CC1 | 6.98 µM | 6.24 µM | 4.88 µM | 7.19 µM | 5.63 µM | > 25 µM | > 25 µM | > 25 µM | 4.38 µM | 6.04 µM
16 | Oc1cc(Br)cc2cc(Br)cnc12 | 46.1 µM | 22.1 µM | > 100 µM | > 100 µM | 24.2 µM | > 100 µM | 30.2 µM | > 100 µM | 31.7 µM | > 100 µM
17 | Fc1ccccc1C1SCC2=Nc3ccccc3CN21 (stereo not given) | > 100 µM | > 100 µM | > 100 µM | > 100 µM | > 100 µM | > 100 µM | > 100 µM | > 100 µM | > 100 µM | > 100 µM

Row | Compound | TGI (NCI-H23 lung) | TGI (NCI-H460 lung) | TGI (MDA-N) | TGI (SF-539 CNS) | TGI (A498 renal) | TGI (HOP-62 NSCLC) | TGI (RPMI-8226 leukemia) | TGI (HCT-15 colon) | TGI (SK-MEL-5 melanoma) | TGI (SF-268 CNS)
18 | O=C(O)c1cc2c(cc1CC(Cc1ccccc1)C(=O)O)CCC2 (stereo not given) | > 100 µM | > 100 µM | > 100 µM | > 100 µM | > 100 µM | > 100 µM | > 100 µM | > 100 µM | > 100 µM | > 100 µM
19 | COc1ccc(C2=C(N)c3ccccc3C2=O)cc1 | > 100 µM | > 100 µM | > 100 µM | > 100 µM | > 100 µM | > 100 µM | > 100 µM | > 100 µM | > 100 µM | > 100 µM
20 | CCCS(=O)OC1C(C2COC(C)(C)O2)OC2OC(C)(C)OC21 (stereo not given) | 23.4 µM | > 62.1 µM | > 70.6 µM | 38.4 µM | 97 µM | 32.5 µM | 12.8 µM | 41.6 µM | 27.7 µM | 62.4 µM
21 | CC1(C)CN=C(c2ccc3ccccc3c2O)N1 | > 100 µM | > 100 µM | > 100 µM | > 100 µM | > 100 µM | > 100 µM | > 100 µM | > 100 µM | > 100 µM | > 100 µM
22 | Clc1cccc(Cl)c1C1ON=C(c2ccccc2)N1C12CC3CC(CC(C3)C1)C2 (stereo not given) | > 100 µM | > 100 µM | > 100 µM | > 100 µM | > 100 µM | > 100 µM | 47.8 µM | > 100 µM | 12.1 µM | > 100 µM
23 | Cc1cc(C(C)(C)C)c(OCCCN2CCOCC2)c(C(C)(C)C)c1 | 32 µM | > 100 µM | 34 µM | 33.7 µM | 33.4 µM | 38.6 µM | 34.8 µM | 32.7 µM | 30 µM | 33.5 µM
24 | Cn1c(=O)n2n(c1=O)C1C(=CC2)C2C=CC1n1c(=O)n(C)c(=O)n12 (stereo not given) | > 100 µM | > 100 µM | > 100 µM | > 100 µM | > 100 µM | > 100 µM | > 100 µM | > 100 µM | > 100 µM | > 100 µM
25 | Cc1ccc2c3ccc4c(c3n(C)c2c1)C(=O)C=CC4=O | > 10 µM | > 10 µM | > 10 µM | > 9.21 µM | > 10 µM | > 10 µM | 5.67 µM | > 10 µM | > 10 µM | > 10 µM
26 | NC(=S)N1N=C(c2ccc3c(c2)CCC3)CC1c1ccccc1 (stereo not given) | 95.5 µM | 64.9 µM | > 100 µM | 43 µM | 29.2 µM | 87 µM | 51.7 µM | 69.6 µM | 31.3 µM | > 100 µM
27 | CCOC(=O)C1C2C1C1C(C(=O)OCC)C21 (stereo not given) | > 100 µM | > 100 µM | > 100 µM | > 100 µM | > 100 µM | > 100 µM | > 100 µM | > 100 µM | > 100 µM | > 100 µM
28 | CN(CCc1ccccn1)C(=S)N/N=C/c1ccccn1 | 13.8 µM | 2.07 µM | 37.4 µM | 0.365 µM | 1.3 µM | 3.48 µM | 0.0424 µM | 35.6 µM | 0.902 µM | > 100 µM
29 | CN(C)CCCN1C(=O)N(CCCN(C)C)c2c3cc(O)ccc3nc3c([N+](=O)[O-])ccc1c23 | 48 µM | 70.4 µM | > 100 µM | 35.5 µM | 40.3 µM | 52.7 µM | 63.3 µM | > 100 µM | 30.4 µM | 26.3 µM
30 | O=c1c2cc(Cl)ccc2n2nnc3ccc(NCCNCCO)c1c32 | 2.86 µM | 1.58 µM | 2.32 µM | 3.32 µM | 2.86 µM | 3.03 µM | 10.2 µM | 2.59 µM | 2.86 µM | 8.86 µM
31 | CCOC(=O)c1c(C)n(CCN2CCN(C)CC2)c2ccc(OC)cc12 | > 100 µM | > 100 µM | 39.4 µM | 87.1 µM | 73.8 µM | > 100 µM | 49.6 µM | 95.8 µM | 30.8 µM | > 100 µM
32 | C1CN(C23OC4(N5CCOCC5)C5C6CC(C7C6C4C72)C53)CCO1 (stereo not given) | > 100 µM | > 100 µM | > 100 µM | > 100 µM | > 100 µM | > 100 µM | > 100 µM | > 100 µM | > 100 µM | > 100 µM
33 | O=[N+]([O-])c1ccc(-c2nc3ccccc3o2)cc1 | > 100 µM | > 100 µM | > 100 µM | > 100 µM | > 100 µM | > 100 µM | > 100 µM | > 100 µM | > 100 µM | > 100 µM
34 | CCCCCCCCCCCOCCC1C(C(C)OCCN2CCCC2)OC2OC(C)(C)OC21 (stereo not given) | 11 µM | 5.05 µM | 3.52 µM | 3.68 µM | 28.5 µM | 4.38 µM | 3.17 µM | 4.35 µM | 3.22 µM | 16 µM
